Results from PubChem BioAssay AID687022 (Broad Institute, 2013).
The source made the active and inactive calls.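 Rule for the calls: active = Fitted curve of melting temperature shift crosses the 1.0 threshold at or below the sample's highest valid tested concentration; inconclusive = Flat fit with activity 30 to 70, or invalid fit; inactive = Opposite direction, flat within 30, or no crossing.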

Target: Fibroblast growth factor 22 (Homo sapiens) (UniProt Q9HCT0)
Test: binders of human FGF22 protein, dose response, FGF22 synaptogenesis inhibitor project, biophysical, thermal shift, cherry-pick (AID 687022)
Details: recombinant FGF22 thermal shift, SYPRO orange melting

Fibroblast growth factor 22 (Homo sapiens), sequence (Q9HCT0 whole entry, looked up): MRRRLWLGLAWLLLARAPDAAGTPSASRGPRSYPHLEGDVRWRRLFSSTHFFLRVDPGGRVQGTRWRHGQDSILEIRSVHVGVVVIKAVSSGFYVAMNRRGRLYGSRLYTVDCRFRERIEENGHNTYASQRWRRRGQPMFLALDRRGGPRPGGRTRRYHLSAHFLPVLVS

| SMILES | AbsAC1 (concentration giving Tm-shift threshold 1.0) |
| --- | --- |
| CN1C(=O)c2cc(NC(=O)c3cccc(F)c3)ccc2OC[C@H]2O[C@@H](CC(=O)NCc3ccccc3)CC[C@H]21 | 3.24 µM |
| CN1C(=O)c2cc(NC(=O)c3cccc(F)c3)ccc2OC[C@H]2O[C@@H](CC(=O)N3CCc4ccccc4C3)CC[C@H]21 | 18.4 µM |
| C[C@@H]1CN([C@H](C)CO)C(=O)c2cc(NC(=O)Nc3ccc(C(F)(F)F)cc3)ccc2O[C@@H]1CN(C)Cc1ccc(C(=O)O)cc1 | 11.5 µM |
| COc1cccc(NC(=O)CN(C)C(=O)c2ccc(NC3CC3)c([N+](=O)[O-])c2)c1 | 5.08 µM |
| C[C@@H]1CN([C@@H](C)CO)C(=O)c2cc(NC(=O)Nc3ccc(C(F)(F)F)cc3)ccc2O[C@@H]1CN(C)Cc1ccc(C(=O)O)cc1 | 18.1 µM |
| CCc1ccc(N2CC(C(=O)OCC(=O)Nc3ccc(C#N)cc3)CC2=O)cc1 (stereo unspecified) | 20.8 µM |
| Cc1[nH]c2ccccc2c1/C=N/NC(=O)c1cccc(F)c1 | 9.79 µM |
| O=C(NCC[C@@H]1CC[C@@H](NC(=O)Nc2cc(F)ccc2F)[C@@H](CO)O1)Nc1ccc(F)cc1 | 18.1 µM |
| Nc1ccc(C(=O)N/N=C/c2c[nH]c3ccccc23)cc1 | 3.41 µM |
| Cc1ccc(C(=O)Nc2nc(=O)n(C(=O)C3CC3)s2)cc1 | 11.1 µM |
| NC(=O)Nc1ccc(C(=O)OCC(=O)Nc2sccc2C(N)=O)cc1 | 23.8 µM |
| O=C(O)c1ccc(NC(=O)c2cccc(S(=O)(=O)Nc3ccc(C(=O)O)cc3)c2)cc1 | > 5 µM (inactive) |
| Cc1onc(-c2ccccc2)c1C(=O)Nc1ncc([N+](=O)[O-])s1 | 17.1 µM |
| CC(C)C#Cc1cnc2c(c1)C(=O)N([C@@H](C)CO)C[C@@H](C)[C@H](CN(C)C(=O)c1cnccn1)O2 | > 38 µM (inactive) |
| S=C(Nc1ccc(Cl)cc1)Nc1ccc2cn[nH]c2c1 | 3.25 µM |
| CC1CCN(Cc2c(C(=O)N/N=C/c3ccc(OC(C)C)cc3)nnn2-c2nonc2N)CC1 | 14 µM |
| CO[C@@H](CN(C)S(=O)(=O)c1cccc(Cl)c1)[C@@H](C)CN([C@@H](C)CO)S(=O)(=O)c1cccc(Cl)c1 | 5.29 µM |
| CCn1c2ccccc2c2cc(/C=N/NC(=O)c3ccncc3)ccc21 | 25 µM |
| CC(C)CC(=O)n1sc(NC(=O)c2ccccc2)nc1=O | 6.61 µM |
| O=C(NCCc1c[nH]c2ccccc12)c1ccc(Cl)cc1 | 2.49 µM |
| O=C(O)c1ccc(Cl)c(S(=O)(=O)Nc2ccc(S(=O)(=O)N3CCCC3)cc2)c1 | 14.1 µM |

| SMILES | AbsAC1 (concentration giving Tm-shift threshold 1.0) |
| --- | --- |
| CCOc1ccc(-c2cc(C(=O)N/N=C/c3cccnc3)c3ccccc3n2)cc1 | 13 µM |
| O=C(N/N=C/c1ccc(Cl)c(Cl)c1)c1ccc2nc[nH]c2c1 | 2.35 µM |
| O=C(Nc1ccc(F)c(Cl)c1)C1CCCN(C2=NS(=O)(=O)c3ccccc32)C1 (stereo unspecified) | > 38 µM (inactive) |
| O=C(O)c1ccccc1NS(=O)(=O)c1ccc2ccccc2c1 | 4.33 µM |
| C/C=C/c1ccc2c(c1)O[C@@H](CN(C)C(=O)Nc1cc(F)ccc1F)[C@@H](C)CN([C@H](C)CO)S2(=O)=O | 20.6 µM |
| CCCOc1ccc(NC(=O)CC2C(=O)N(C)C(=S)N2Cc2ccc3c(c2)OCO3)cc1 (stereo unspecified) | 3.25 µM |
| O=S(=O)(Nc1cccc(-n2cnnn2)c1)c1ccc(Cl)cc1 | 27.6 µM |
| O=C(NC1CC1)c1cccc(NC(=O)c2cnn(-c3ccccc3)n2)c1 | 11.7 µM |
| O=C(CCc1ccc(O)cc1)c1c(O)cc(O)cc1O | 1.74 µM |
| Cn1cc([N+](=O)[O-])c(C(=O)Nc2ccc3nc(-c4ccccc4)[nH]c3c2)n1 | 16 µM |
| Cc1cc(NC(=O)Nc2ccc3c(ccn3C)c2)sn1 | 3.42 µM |
| COc1ccc2c(/C=N/NS(=O)(=O)c3ccc(C)cc3)c[nH]c2c1 | 9.87 µM |
| CC(=O)c1ccc(NC(=O)c2noc(C(C)C)c2[N+](=O)[O-])cc1 | 3.85 µM |
| CC(=O)c1c(C)nc(-c2ccc(OCC(=O)Nc3cccc(C)c3C)cc2)n1O | 29.7 µM |
| COc1cccc(NC(=O)CN(C)C(=O)c2ccc(N3CCCCC3)c([N+](=O)[O-])c2)c1 | 11.4 µM |
| O=C(NCC[C@@H]1CC[C@H](NC(=O)c2cnccn2)[C@H](CO)O1)Nc1ccc(F)cc1 | 41 µM |
| C[C@@H]1CN([C@@H](C)CO)C(=O)Cc2cc(NC(=O)C3CC3)ccc2O[C@H]1CN(C)Cc1ccc(Cl)c(Cl)c1 | 16.7 µM |
| O=C(Nc1cc(Cl)cc(Cl)c1)N[C@H]1CC[C@H](CCNS(=O)(=O)c2cccc(F)c2)O[C@@H]1CO | 11 µM |
| COc1ccc(C#Cc2ccc3c(c2)O[C@H](CN(C)S(=O)(=O)c2ccccc2F)[C@@H](C)CN([C@@H](C)CO)S3(=O)=O)cc1 | 14.7 µM |
| Nc1ccccc1N=Nc1ccccc1N | 7.75 µM |
| O=C(NNC(=O)C1CCN(S(=O)(=O)c2ccccc2C(F)(F)F)CC1)c1ccccc1O | 10.4 µM |

| SMILES | AbsAC1 (concentration giving Tm-shift threshold 1.0) |
| --- | --- |
| O=c1oc(-c2ccc(O)c(O)c2)cc2cc(O)cc(O)c12 | 4.66 µM |
| O=C(C[C@H]1CC[C@@H]2[C@H](COC[C@H](O)CN2S(=O)(=O)c2cccc(F)c2)O1)Nc1ccccc1 | 3.48 µM |
| COc1ccc(S(=O)(=O)N(NC2=NS(=O)(=O)c3ccccc32)C(=O)C(C)C)cc1 | > 38 µM (inactive) |
| O=[N+]([O-])c1ccc2nc(NS(=O)(=O)c3ccccc3[N+](=O)[O-])sc2c1 | 6.33 µM |
| O=C(N/N=C/c1ccc(O)c(O)c1)N/N=C/c1ccc(O)c(O)c1 | 7.88 µM |
| C[C@@H]1CN([C@@H](C)CO)S(=O)(=O)c2ccc(-c3ccc(F)cc3)cc2O[C@@H]1CN(C)C(=O)Nc1ccccc1F | > 38 µM (inactive) |
| O=C(N/N=C/c1ccc(Cl)cc1)c1ccc2nc[nH]c2c1 | 2.95 µM |
| CCN1C(=O)C(CC(=O)Nc2ccc(F)cc2)N(Cc2ccc3c(c2)OCO3)C1=S (stereo unspecified) | 2.83 µM |
| CSc1nc2nc(Cl)c(Cl)nc2[nH]1 | > 38 µM (inactive) |
| Nc1cccc(-c2nc3ccc(C(=O)c4ccccc4)cc3[nH]2)c1 | 1.15 µM |
| CC1([N+](=O)[O-])COP(=O)(NC2CC2)OC1 (stereo unspecified) | 8.33 µM |
| CC(=O)Nc1cccc(C(=O)N/N=C/c2c[nH]c3ccccc23)c1 | 2.4 µM |
| O=C(Nc1ccc(S(=O)(=O)N2CCCC2)cc1)c1ccccc1 | 8.57 µM |
| CCN(CC)c1ccc2cc(S(=O)(=O)c3ccc(Cl)cc3)c(=O)oc2c1 | 5.6 µM |
| C/C=C/c1ccc2c(c1)O[C@H](CN(C)C(=O)Nc1cc(F)ccc1F)[C@H](C)CN([C@H](C)CO)S2(=O)=O | > 42 µM (inactive) |
| O=C(NNC(=O)c1ccccc1F)c1ccc(NS(=O)(=O)c2ccc(F)cc2)cc1 | 18.2 µM |
| Cc1ccccc1S(=O)(=O)NCC[C@@H]1CC[C@@H](NC(=O)Nc2cccc(Cl)c2)[C@@H](CO)O1 | 8.07 µM |
| COc1ccc(-c2csc(NC(=O)CN3C(=O)C4CCCCC4C3=O)n2)c(OC)c1 (stereo unspecified) | 14.7 µM |
| O=C(O)Cn1cc(/C=N/NC(=O)c2cc3cc(Br)ccc3o2)c2ccccc21 | 6.74 µM |
| N#Cc1cccc(NC(=O)c2ccc(S(=O)(=O)N3CCOCC3)cc2)c1 | 4 µM |
| Nc1nnc(CC(=O)N/N=C/c2cc([N+](=O)[O-])cc(Br)c2O)s1 | 4.99 µM |

| SMILES | AbsAC1 (concentration giving Tm-shift threshold 1.0) |
| --- | --- |
| COc1ccc(/C=N/NC(=O)c2cc(-c3ccc4c(c3)OCO4)n[nH]2)cc1OC | 18.1 µM |
| CCn1ccnc1CN(C)C(=O)c1ccc2nc(Cc3ccc(OC)cc3)oc2c1 | 11.9 µM |
| CCOc1cccc(C(=O)Nc2ccc3[nH]ncc3c2)c1 | 3.89 µM |
| N/C(=N\OCC(=O)Nc1ccc(F)c(Cl)c1)c1ccccc1 | 4.58 µM |
| COc1ccc(NC(=O)N[C@H]2CC[C@@H](CCn3cc(-c4ccc(OC)cc4)nn3)O[C@@H]2CO)cc1 | > 42 µM (inactive) |
| Cc1ccc(NC(=O)c2sc3ncn(CC(=O)N4CCN(c5ccccn5)CC4)c(=O)c3c2C)cc1F | 10.6 µM |
| N#Cc1c(-c2ccccc2)nc(-c2ccncc2)[nH]c1=O | 30.3 µM |
| O=C(C[C@@H]1CC[C@H]2[C@@H](COC[C@@H](O)CN2S(=O)(=O)c2cccc(F)c2)O1)Nc1ccccc1 | 3.53 µM |
| O=C(O)c1cccc(NS(=O)(=O)c2ccc(-c3ccc(S(=O)(=O)Nc4cccc(C(=O)O)c4)cc3)cc2)c1 | 1.2 µM |
| COc1cccc(NC(=O)CN(C)C(=O)c2cn(-c3ccccc3)nc2-c2cccs2)c1 | 6.16 µM |
| COc1ccc(-c2ccc([C@H]3[C@@H](CO)N4CCCCN(C(=O)c5ccc6c(c5)OCO6)C[C@H]34)cc2)cc1 | 15.2 µM |
| COc1ccc(N(C)S(=O)(=O)c2cccc(C(=O)Nc3ccc(N4CCOCC4)cc3)c2)cc1 | 9 µM |
| O=C(N/N=C/c1ccncc1)c1cccc(N/N=C/c2ccncc2)c1 | 8.51 µM |
| COc1cc(NC(=O)c2cnc(N)o2)cc(C(=O)Nc2cccc(C(F)(F)F)c2)c1 | 3.44 µM |
| COc1cc2cc(NC(C)=O)cc(NCc3ccccc3)c2cc1OC | 8.13 µM |
| CC(C)(C)S(=O)(=O)/C(C#N)=N/Nc1ccc(Cl)cc1 | 25.7 µM |
| O=C(N/N=C/c1c[nH]c2ccccc12)c1cccs1 | 2.71 µM |
| COc1ccc(-c2nc(-c3ccc(O)cc3O)cs2)cc1OC | 5.56 µM |
